In article PMC12057359, “Inhibitory effect of copper chelators on the budding in Candida albicans” (Antimicrobial Agents and Chemotherapy, 2025):
Read-outs that look alike come from different tables or passages of the source.

Columns and labels:
C. albicans JCM1542 [1] = assay: iHOPE antimicrobial microdilution assay (turbidity OD600); format: cell-based, Candida albicans
[2] = iHOPE in vitro cytotoxicity assessment (Cell Count Reagent SF); format: cell-based, human; conditions: human
Protocol: (§1) The method for in vitro cytotoxicity assessment using Cell Count Reagent SF (Nacalai Tesque) has been described previously ([15]). […] Test compounds were added to the culture medium, and then the plates were incubated at 28°C for 24 h.

C. auris VPCI673 = assay: iHOPE antimicrobial microdilution assay (turbidity OD600); format: cell-based, Candida auris; conditions: Candidozyma auris, VPCI673; MOPS-RPMI medium, 24 h; SD in parentheses, n = 3; read-out: IC50 against C. auris VPCI673
C. tropicalis JCM1541 = assay: as above; format: cell-based; conditions: Candida tropicalis, JCM1541; MOPS-RPMI medium, 24 h; SD in parentheses, n = 3; read-out: IC50 against C. tropicalis JCM1541
C. auris Ci6684 = assay: as above; format: cell-based, Candida auris; conditions: Candidozyma auris, CI6684; MOPS-RPMI medium, 24 h; SD in parentheses, n = 3; read-out: IC50 against C. auris Ci6684
C. glabrata JCM3761 = assay: as above; format: cell-based, Candida glabrata; conditions: Nakaseomyces glabratus, JCM3761; MOPS-RPMI medium, 24 h; SD in parentheses, n = 3; read-out: IC50 against C. glabrata JCM3761
C. albicans JCM1542 [3] = format: cell-based, Candida albicans
P. oryzae Kita-1 = assay: microbe, parasite or virus in culture; format: cell-based, Pyricularia oryzae
A. fumigatus Af293 = assay: iHOPE antimicrobial microdilution assay; format: cell-based, Aspergillus fumigatus; conditions: SD in parentheses, n = 3, read-out: IC50 against A. fumigatus Af293
S. aureus 209P = assay: iHOPE antimicrobial microdilution assay; format: cell-based, Staphylococcus aureus; conditions: SD in parentheses, n = 3, read-out: IC50 against S. aureus 209P
E. coli HO-141 = assay: iHOPE antimicrobial microdilution assay; format: cell-based, Escherichia coli; conditions: SD in parentheses, n = 3, read-out: IC50 against E. coli HO-141
HL-60 RCB0041 = assay: iHOPE in vitro cytotoxicity assessment (Cell Count Reagent SF); format: cell-based, human
Protocol: as §1

[4] = Candida albicans, JCM1542, 24 h, read-out: IC50 against C. albicans JCM1542
[5] = SD in parentheses, n = 3, read-out: IC50 against HL-60 RCB0041 (cytotoxicity)
[6] = Candida albicans, JCM1542; MOPS-RPMI medium, 28°C, 24 h, OD600; standard deviation in parentheses, n = 3; read-out: IC50 against C. albicans JCM1542

oligomycin A gave an IC50 (C. albicans JCM1542 [1]; read-out: IC50 against C. albicans JCM1542; MOPS-RPMI medium, 28°C, 24 h, OD600; standard deviation in parentheses, n = 3) of 3100 nM.

Molecule CCCCCC[C@H]1C(=O)O[C@H](C)[C@H](NC(=O)c2cccc(NC=O)c2O)C(=O)O[C@@H](C)[C@@H]1OC(=O)CC(C)C [Antimycin A, antimycin A] has an IC50 (C. albicans JCM1542 [1]; [4]) of 35 nM.

In the case of [C-]#[N+][C@@H](C)CC(=O)NCc1ccc(N)cc1 [8b], the IC50 [2, 5] is reported as over 30000 nM, the “antifungal activity / inhibition of budding against C. albicans (in words)” value (“antifungal activity / inhibition” below) (C. albicans JCM1542 [1]; C. albicans JCM1542) is reported as “weak antifungal activity and inhibition of budding” and the IC50 (C. albicans JCM1542 [1]; [6]) is reported as 1800 nM.

With [C-]#[N+][C@@H](C)CC(=O)N[C@H]1CC[C@@H](NC(=O)C[C@H](C)[N+]#[C-])CC1 [15b] the IC50 [2, 5] was over 30000 nM, the IC50 (C. auris VPCI673) was 34 nM and the IC50 (C. tropicalis JCM1541) was 26 nM. The IC50 (C. auris Ci6684) was 62 nM, the IC50 (C. albicans JCM1542 [1]; [6]) was 19 nM and the IC50 (C. glabrata JCM3761) was 10 nM.

Work on [C-]#[N+][C@H](C)CC(=O)Nc1cccc(NC(=O)C[C@@H](C)[N+]#[C-])c1 [14a] yielded an IC50 [2, 5] of over 30000 nM and an IC50 (C. albicans JCM1542 [1]; [6]) of 54 nM.

With C/C=C/C(=O)NCc1ccc(N)cc1 [compound 9] the IC50 [2, 5] was over 30000 nM, the “antifungal activity / inhibition” value (C. albicans JCM1542 [1]; C. albicans JCM1542) was “did not mediate any changes in either the survival rate or morphology” and the IC50 (C. albicans JCM1542 [1]; [6]) was over 30000 nM.

With CC(C)=CCC/C(C)=C/CC/C(C)=C/CO [farnesol] the “growth form of C. albicans under hyphal growth conditions” value (C. albicans JCM1542 [3]; 3 µM, MOPS-RPMI) was “the cells grew as yeast form”.

In the case of Nc1nc(=O)[nH]cc1F [5-FC, 5-fluorocytosine], the IC50 [2] is reported as over 30000 nM, the IC50 (P. oryzae Kita-1; Pyricularia oryzae, KITA1, read-out: IC50 against P. oryzae Kita-1) is reported as over 30000 nM and the IC50 (C. auris VPCI673) is reported as 270 nM. For the same molecule, the IC50 (C. tropicalis JCM1541) was 110 nM, the IC50 (C. auris Ci6684) was 370 nM and the “morphological change induced in C. albicans” value (C. albicans JCM1542 [3]; C. albicans JCM1542, MOPS-RPMI medium, 24 h) was “hyphal-rich morphology”. The IC50 (C. albicans JCM1542 [1]; [6]) was 190 nM, the IC50 (C. glabrata JCM3761) was 81 nM and the IC50 (A. fumigatus Af293; Aspergillus fumigatus, AF293) was 15000 nM. The IC50 (S. aureus 209P; Staphylococcus aureus, 209P) was over 30000 nM and the IC50 (E. coli HO-141; Escherichia coli, HO141) was over 30000 nM.

In the case of CCCC(=O)NCc1ccc(NC(=O)CCC)cc1 [compound 11], the IC50 [2, 5] is reported as over 30000 nM, the “antifungal activity / inhibition” value (C. albicans JCM1542 [1]; C. albicans JCM1542) is reported as “did not mediate any changes in either the survival rate or morphology” and the IC50 (C. albicans JCM1542 [1]; [6]) is reported as over 30000 nM.

C/C=C(\C)[C@H](O)[C@H](C)/C=C(C)/C=C/C/C(C)=C/Cc1nc(OC)c(OC)c(O)c1C [Piericidin A, piericidin A] showed an IC50 (C. albicans JCM1542 [1]; [4]) of 12000 nM.

For [Cl][Cu][Cl] [Cu^2+, copper chloride (II)], the IC50 (HL-60 RCB0041) was over 30000 nM, the IC50 (P. oryzae Kita-1; SD in parentheses, n = 3, read-out: IC50 against P. oryzae Kita-1) was over 30000 nM and the “concentration leading to earlier budding of C. albicans” value (C. albicans JCM1542 [3]) was at least 1 µM. The IC50 (C. albicans JCM1542 [1]; MOPS-RPMI medium, 28°C, 24 h, OD600; standard deviation in parentheses, n = 3; read-out: IC50 against C. albicans JCM1542) was over 30000 nM, the IC50 (A. fumigatus Af293) was over 30000 nM and the IC50 (S. aureus 209P) was over 30000 nM. It also gave an IC50 (E. coli HO-141) of over 30000 nM.

[C-]#[N+][C@@H](C)CC(=O)NCc1ccc(NC(=O)C[C@H](C)[N+]#[C-])cc1 [10b] showed an IC50 [2, 5] of over 30000 nM and an IC50 (C. albicans JCM1542 [1]; [6]) of 190 nM.

In the case of [C-]#[N+][C@H](C)CC(=O)N[C@H]1CC[C@H](NC(=O)C[C@@H](C)[N+]#[C-])CC1 [16a], the IC50 [2, 5] is reported as over 30000 nM and the IC50 (C. albicans JCM1542 [1]; [6]) is reported as 610 nM.

With [C-]#[N+][C@H](C)CC(=O)NCc1ccc(N)cc1 [8a] the IC50 [2, 5] was over 30000 nM, the “antifungal activity / inhibition” value (C. albicans JCM1542 [1]; C. albicans JCM1542) was “weak antifungal activity and inhibition of budding” and the IC50 (C. albicans JCM1542 [1]; [6]) was 770 nM.

[C-]#[N+][C@@H](C)CC(=O)Nc1cccc(NC(=O)C[C@H](C)[N+]#[C-])c1 [14b] gave an IC50 [2, 5] of over 30000 nM and an IC50 (C. albicans JCM1542 [1]; [6]) of 20 nM.
